# Experimental data: the CATMoS acute toxicity set (Mansouri et al. 2021)
# Experiment: GHS categories as the set defines them, by LD50: 1 up to 5, 2 up to 50, 3 up to 300, 4 up to 2000, 5 above 2000 mg/kg
# Conditions: rat; in vivo; po
row,SMILES,GHS category
1,O=C1OC(=O)c2c(Br)c(Br)c(Br)c(Br)c21,5
2,Cc1ccc(-c2c(Cl)nc(C#N)n2S(=O)(=O)N(C)C)cc1,5
3,CCOCC(O)COc1ccc(NC(=O)CC[S+](C)C)cc1 (stereo unspecified),5
4,CNC(=O)C(=NNc1ccccc1[N+](=O)[O-])C(C)=O,5
5,CCCCOC(=O)c1ccc(-n2nc(OCCN(CC)CC)c3ccccc32)cc1,4
6,C=CC(=O)NCCO,5
7,CN(C)c1ccc(NC(=O)CCCSc2nnnn2C)cc1,4
8,O=c1[nH]c2ccc([N+](=O)[O-])cc2[nH]1,5
9,CC(=O)N(C)C(=O)Oc1cccc2c1OC(C)(C)O2,4
10,CCCCCCCCCCCCCCCCCCCCCC(=O)O,5
11,CC(C)=CCC(C#N)(CCN1CCCCC1)c1cccc2ccccc12 (stereo unspecified),4
12,O=P(Oc1ccccc1)(Oc1ccccc1)Oc1cccc(OP(=O)(Oc2ccccc2)Oc2ccccc2)c1,5
13,CCCOc1nn(-c2cccc(C(F)(F)F)c2)c2ncccc12,4
14,O=[N+]([O-])c1ccc(OP(=S)(Oc2ccc([N+](=O)[O-])cc2)Oc2ccc([N+](=O)[O-])cc2)cc1,5
15,CCN(CCCCOC(=O)c1ccc(OC)c(OC)c1)C1CCc2cc(OC)ccc2C1 (stereo unspecified),5
16,CCN(Cc1cccc(S(=O)(=O)O)c1)c1ccc(C(=C2C=CC(=[N+](CC)Cc3cccc(S(=O)(=O)[O-])c3)C=C2)c2ccc(S(=O)(=O)O)cc2)cc1,5
17,CC1CC(OC(=O)COc2ccc(Cl)cc2)CC(C)(C)C1 (stereo unspecified),5
18,OC[C@H]1O[C@@H](OC[C@H]2O[C@@H](O[C@@H]3[C@@H](O)[C@H](O)O[C@H](CO)[C@H]3O)[C@H](O)[C@@H](O[C@@H]3O[C@H](CO)[C@@H](O)[C@H](O)[C@H]3O)[C@@H]2O)[C@H](O)[C@@H](O)[C@@H]1O,4
19,CC1CC(c2ccccc2)C(c2ccccc2)C(=O)O1 (stereo unspecified),4
20,CCCCCCCCCCC=O,5
21,O=[N+]([O-])c1ccc(C=NOCc2cccc([N+](=O)[O-])c2)cc1,4
22,C[C@]12CC[C@H]3[C@@H](CCC4=CC(=O)C=C[C@@]43C)[C@@H]1CC[C@H]2O,5

row,SMILES,GHS category
1,Fc1ccccc1C1=NCC(=S)N(CC(F)(F)F)c2ccc(Cl)cc21,5
2,N#Cc1cccc(C2=C3C(=O)NC(c4cccc(C#N)c4)=C3C(=O)N2)c1,5
3,CCCC(=NOCC(C)Oc1ccc(Cl)cc1)C1=C(O)CC(C2CCCSC2)CC1=O (stereo unspecified),5
4,CCCC(=O)OCC(C)C,5
5,O=C(O[C@H]1[C@H](OC(=O)c2cccnc2)[C@@H](OC(=O)c2cccnc2)[C@H](OC(=O)c2cccnc2)[C@@H](OC(=O)c2cccnc2)[C@H]1OC(=O)c1cccnc1)c1cccnc1,5
6,O=C(Nc1ccccc1-c1ccc(Cl)cc1)c1cccnc1Cl,5
7,O=C1OCc2c(Cl)cccc21,4
8,O=C(c1ccccc1)c1cc([N+](=O)[O-])ccc1S(=O)(=O)NCCCN1CCOCC1,4
9,CCO[Si](CCCCl)(OCC)OCC,5
10,CC1=C(/C=C/C(C)=C/C=C/C(C)=C\C(=O)O)C(C)(C)CCC1,5
11,Clc1ccc(C(Cn2ccnc2)OCc2ccc(Sc3ccccc3)cc2)c(Cl)c1 (stereo unspecified),5
12,CC/C(=C(/CC)c1ccc(O)cc1)c1ccc(O)cc1,5
13,CCCCCCCOCCCCN1CCCCCC1=O,5
14,CC(=O)N1c2ccccc2SC1c1cc([N+](=O)[O-])ccc1OCCCN(C)C1CCCCC1 (stereo unspecified),5
15,CCCCC(CC)CNc1ccc2ccccc2c1N=Nc1ccc(N=Nc2ccccc2C)cc1C (stereo unspecified),5
16,O=C(O)CN(CC(=O)O)CC(O)CN(CC(=O)O)CC(=O)O,5
17,N[C@@H](CSCC(=O)O)C(=O)O,5
18,O=C1OC(CBr)CC12CC(CBr)OC2=O (stereo unspecified),5
19,CCCCC(CC)COC(=O)CCCCCCCC(=O)OCC(CC)CCCC (stereo unspecified),5
20,COC(=O)c1c(C(F)F)nc(C(F)(F)F)c(C2=NCCS2)c1CC(C)C,5
21,C[S+](C)CC[C@@H](N)C(=O)O (racemic),5
22,CCCCCCCNC(=O)c1cnc2cccc(C)n2c1=O,3

row,SMILES,GHS category
1,C[C@]12C[C@H]3O[C@H]3CC1CCC1C2CC[C@]2(C)C(=O)[C@@H](N3CCCC3)CC12 (stereo partly specified),5
2,CCCCCCCCOC(=O)c1ccc(C(=O)OCCCCCCCC)c(C(=O)OCCCCCCCC)c1,5
3,CC1Oc2cc(C(=O)c3ccccc3)ccc2N(C)C1=O (stereo unspecified),5
4,NC[C@H]1O[C@H](O[C@H]2[C@H](O[C@@H]3O[C@H](CO)[C@@H](O)[C@H]3O)C(O)[C@H](N)C[C@@H]2N)[C@H](N)[C@@H](O)[C@@H]1O (stereo partly specified),5
5,CCCCCCCCCCCCOC(=O)CCSCCC(=O)OCCCCCCCCCCCC,5
6,COC(=O)Cc1c(C(=O)OC)sc(N)c1C#N,5
7,CO[C@H]1C=CO[C@@]2(C)Oc3c(C)c(O)c4c(O)c(c5c(nc6cc(C)ccn65)c4c3C2=O)NC(=O)C(C)=CC=C[C@H](C)[C@H](O)[C@@H](C)[C@@H](O)[C@@H](C)[C@H](OC(C)=O)[C@@H]1C,5
8,c1ccc([Si]2(c3ccccc3)O[Si](c3ccccc3)(c3ccccc3)O[Si](c3ccccc3)(c3ccccc3)O[Si](c3ccccc3)(c3ccccc3)O2)cc1,5
9,Cc1c(Cc2ccc(-c3ccccc3-c3nn[nH]n3)cc2)c(=O)nc2nc[nH]n12,4
10,O=C1OC(=O)c2ccc3c4ccc5c6c(ccc(c7ccc1c2c73)c64)C(=O)OC5=O,5
11,CCC(C)CCC(C)(CC)OC(C)=O (stereo unspecified),5
12,COc1ccc(CCN2CCC(Nc3nc4ccccc4n3Cc3ccc(F)cc3)CC2)cc1,5
13,C=CCOC(=O)Nc1nc(N2CC=CCC2)cc2nc(=O)on12,5
14,COC1[C@@H](O[C@@H]2O[C@H](C)[C@@H](O[C@H]3C[C@@](C)(O)[C@H](OC(=O)CC(C)C)[C@H](C)O3)[C@H](N(C)C)[C@H]2O)[C@@H](CC=O)C[C@@H](C)[C@@H](O)C=CC=CC[C@@H](C)OC(=O)C[C@H]1OC(C)=O (stereo partly specified),5
15,CCCC(=O)c1ccc2c(c1)OC(C)(C)C(=O)N2C,5
16,CO/C=C(/C(=O)OC)c1ccccc1COc1cccc(C(F)(F)F)n1,5
17,CCCC(=O)c1ccc(N)c(O)c1,5
18,CC(C)COC(=O)CC(C)C,5
19,CC1CC(OC(=O)COc2ccccc2Cl)CC(C)(C)C1 (stereo unspecified),5
20,CCCC(C)O (stereo unspecified),5
21,CC(C)(c1ccccc1)C(C)(C)c1ccccc1,5
22,CCOC(=O)C1=C(COCCN2C(=O)c3ccccc3C2=O)NC(C)=C(C(=O)OC)C1c1ccccc1Cl (stereo unspecified),5

row,SMILES,GHS category
1,CNC(=O)/C(=N/OC)c1ccccc1COc1cc(C)ccc1C,5
2,O=S(O)c1ccc(Cl)cc1,4
3,C#CCOc1cc(-n2nc(C(C)(C)C)oc2=O)c(Cl)cc1Cl,5
4,COc1cc(NS(=O)(=O)c2ccccc2)c2c(c1N)C(=O)c1ccccc1C2=O,5
5,O=C(O)c1ccc2ccccc2c1,5
6,COc1cc2nc(N3CCC(N(C)C(=O)c4ccco4)CC3)nc(N)c2cc1OC,4
7,COc1cc([N+](=O)[O-])c(OC)cc1Cl,5
8,COC(=O)c1cc(F)ccc1[N+](=O)[O-],5
9,O=S(O)CO,5
10,O=C(O)COc1ccc(Cl)cc1CO,5
11,Nc1c(I)c(C(=O)Cl)c(I)c(C(=O)Cl)c1I,5
12,CC1Oc2cc(C(=O)C=Cc3ccc(O)cc3)ccc2N(C)C1=O (stereo unspecified),5
13,CCOC(=O)C(=O)Nc1cc(OC)nc(OC)n1,4
14,C[C@H]1CO[C@@](Cn2cncn2)(c2cc3cc(Cl)cc(Cl)c3o2)O1,4
15,COc1cc(OC)nc(NC(=O)NS(=O)(=O)c2c(C(=O)O)cnn2C)n1,5
16,C=C[Si](C)(C)O[Si](C)(C)C=C,5
17,Brc1c(Br)c(Br)c(CCc2c(Br)c(Br)c(Br)c(Br)c2Br)c(Br)c1Br,5
18,Nc1nc(=O)[nH]cc1F,5
19,OC(Cn1ccnc1)c1ccc(CCc2ccccc2)cc1 (stereo unspecified),5
20,CC(CCc1ccccc1)NCC(O)c1ccc(O)c(C(N)=O)c1 (stereo unspecified),5
21,COC(OC)N(C)C,5
22,CC1(C)S[C@@H]2[C@H](NC(=O)[C@H](N)c3ccc(O)cc3)C(=O)N2[C@H]1C(=O)O,5

row,SMILES,GHS category
1,Cc1ncc(CSSCc2cnc(C)c(O)c2CO)c(CO)c1O,5
2,NC(=O)NC1CCC(=O)c2sccc21 (stereo unspecified),5
3,CCCN(CCC)C(=O)C(CCC(=O)OCCOC(=O)COC(=O)Cc1c(C)n(C(=O)c2ccc(Cl)cc2)c2ccc(OC)cc12)NC(=O)c1ccccc1 (stereo unspecified),4
4,C#CCOC(=O)Nc1nc(N2CC=CCC2)cc2nc(=O)on12,5
5,CC1CNCCN1SC=S (stereo unspecified),5
6,CC(C)CCCCCCCCCCOCCCN,4
7,COc1ccc2c(c1)CCN(c1ccccc1)C2c1cccc(Br)c1 (stereo unspecified),4
8,N#Cc1ccc(C#N)cc1,5
9,CCCCCCCCCCCCCCCCCC(=O)NCCCCC(NC(=O)CCC(NC(=O)C(C)NC(=O)C(C)OC1C(O)C(CO)OC(O)C1NC(C)=O)C(N)=O)C(=O)O (stereo unspecified),4
10,CCCN(CCC)C(=O)C(CCC(=O)OCCOCCOC(=O)Cc1c(C)n(C(=O)c2ccc(Cl)cc2)c2ccc(OC)cc12)NC(=O)c1ccccc1 (stereo unspecified),4
11,CN1C(=O)CCc2c(OCC(O)CN3CCC(Cc4ccccc4)CC3)cccc21 (stereo unspecified),4
12,CC(=O)Nc1ccc(C(C[N+](=O)[O-])Sc2ccc(C)cc2)cc1 (stereo unspecified),5
13,CCOc1ccc(N(CCCC(=O)O)C(=O)c2ccc(Cl)cc2)cc1,5
14,COc1cc(C(=O)OCCCN2CCCN(CCCOC(=O)c3cc(OC)c(OC)c(OC)c3)CC2)cc(OC)c1OC,5
15,CC1CC(OC(=O)C(C)(C)Oc2cccc(C(F)(F)F)c2)CC(C)(C)C1 (stereo unspecified),5
16,CC(=O)OC(C)Cc1ccccc1 (stereo unspecified),5
17,O=C(NC(=O)c1c(F)cccc1F)Nc1cc(Cl)c(OC(F)(F)C(F)F)c(Cl)c1,5
18,Cn1c(=O)c2[nH]c(=O)[nH]c2n(C)c1=O,5
